Assay results reported in ChEMBL document CHEMBL3751661, “The influence of 5-HT(2A) activity on a 5-HT(2C) specific in vivo assay used for early identification of multiple acting SERT and 5-HT(2C) receptor ligands” (Bioorg Med Chem Lett, 2016).
Calls of active or inactive are those of the source. No cut-off for these calls is given here.

Experiments:
[1] = Intrinsic clearance in mouse liver microsomes at 2.5 uM; assay type: ADME
[2] = biological target: T1, 5-hydroxytryptamine receptor 2A (Homo sapiens, UniProt P28223); test: Binding affinity to 5HT2A (unknown origin)
T1 sequence (P28223 whole entry): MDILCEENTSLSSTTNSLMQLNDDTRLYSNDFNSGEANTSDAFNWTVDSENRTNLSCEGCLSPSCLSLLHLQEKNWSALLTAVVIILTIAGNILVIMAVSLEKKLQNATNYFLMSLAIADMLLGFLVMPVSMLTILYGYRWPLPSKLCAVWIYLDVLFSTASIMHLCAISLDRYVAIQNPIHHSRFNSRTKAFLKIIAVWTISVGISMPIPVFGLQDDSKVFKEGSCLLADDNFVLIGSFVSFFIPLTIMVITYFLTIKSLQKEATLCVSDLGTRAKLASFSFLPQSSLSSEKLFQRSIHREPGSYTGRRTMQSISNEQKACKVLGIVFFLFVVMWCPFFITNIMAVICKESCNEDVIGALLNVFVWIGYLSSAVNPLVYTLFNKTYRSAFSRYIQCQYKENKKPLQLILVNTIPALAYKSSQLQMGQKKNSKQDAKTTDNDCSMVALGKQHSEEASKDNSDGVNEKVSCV

[3] = biological target: 5-hydroxytryptamine receptor 2A (Rattus norvegicus, UniProt P14842); test: Displacement of [3H]ketanserin from 5HT2A in Wistar rat frontal cortex membranes after 1 hr by liquid scintillation spectrometry; assay type: cell membranes, Membrane
5-hydroxytryptamine receptor 2A (Rattus norvegicus, UniProt P14842), sequence (P14842 whole entry): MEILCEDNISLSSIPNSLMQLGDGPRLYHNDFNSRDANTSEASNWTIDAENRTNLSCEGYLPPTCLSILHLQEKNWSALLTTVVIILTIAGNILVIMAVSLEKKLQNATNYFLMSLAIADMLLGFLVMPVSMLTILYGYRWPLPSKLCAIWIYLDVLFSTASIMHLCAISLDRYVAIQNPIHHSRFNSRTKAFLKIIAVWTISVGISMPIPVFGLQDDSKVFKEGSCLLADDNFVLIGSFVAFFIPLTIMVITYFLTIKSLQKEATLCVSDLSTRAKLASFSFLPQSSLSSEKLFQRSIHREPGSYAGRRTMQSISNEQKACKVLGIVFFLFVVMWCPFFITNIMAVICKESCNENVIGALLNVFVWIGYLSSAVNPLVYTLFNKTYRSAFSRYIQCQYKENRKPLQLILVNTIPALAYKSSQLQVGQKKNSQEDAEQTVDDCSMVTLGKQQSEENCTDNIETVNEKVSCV

[4] = biological target: T2, 5-hydroxytryptamine receptor 2C (Homo sapiens, UniProt P28335); test: Binding affinity to 5HT2C (unknown origin)
T2 sequence (P28335 whole entry): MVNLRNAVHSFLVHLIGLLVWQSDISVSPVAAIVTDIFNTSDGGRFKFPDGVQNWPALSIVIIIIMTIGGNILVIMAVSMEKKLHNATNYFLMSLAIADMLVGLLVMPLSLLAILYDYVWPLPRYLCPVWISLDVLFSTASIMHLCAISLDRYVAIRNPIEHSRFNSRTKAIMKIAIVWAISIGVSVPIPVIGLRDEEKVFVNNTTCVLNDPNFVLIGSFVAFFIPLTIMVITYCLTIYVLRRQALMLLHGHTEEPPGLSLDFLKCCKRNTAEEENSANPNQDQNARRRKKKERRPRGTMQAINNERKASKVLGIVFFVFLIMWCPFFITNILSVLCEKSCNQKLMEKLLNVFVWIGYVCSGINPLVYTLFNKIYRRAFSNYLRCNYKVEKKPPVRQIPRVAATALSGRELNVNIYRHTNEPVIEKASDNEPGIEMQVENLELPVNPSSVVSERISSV

[5] = biological target: T3, 5-hydroxytryptamine receptor 2C (Rattus norvegicus, UniProt P08909); test: Displacement of [3H]mesulergine from 5HT2C in Sprague-Dawley rat whole brain membranes after 1 hr by liquid scintillation spectrometry; assay type: tissue-based, Membrane
T3 sequence (P08909 whole entry): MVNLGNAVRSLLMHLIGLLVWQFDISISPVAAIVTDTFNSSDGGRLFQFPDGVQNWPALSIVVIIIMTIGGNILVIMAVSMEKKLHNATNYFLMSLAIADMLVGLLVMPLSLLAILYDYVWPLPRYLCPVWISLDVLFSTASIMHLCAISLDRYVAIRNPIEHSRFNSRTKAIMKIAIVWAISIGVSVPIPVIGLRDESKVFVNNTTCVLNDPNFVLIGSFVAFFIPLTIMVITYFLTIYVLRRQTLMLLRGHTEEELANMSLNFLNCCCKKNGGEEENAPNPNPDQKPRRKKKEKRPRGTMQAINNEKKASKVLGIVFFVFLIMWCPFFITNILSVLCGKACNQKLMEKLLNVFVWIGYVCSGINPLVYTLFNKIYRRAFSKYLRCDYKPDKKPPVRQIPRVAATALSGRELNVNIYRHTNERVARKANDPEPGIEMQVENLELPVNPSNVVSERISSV

[6] = biological target: Sodium-dependent serotonin transporter (Homo sapiens, UniProt P31645); test: Binding affinity to SERT (unknown origin)
Sodium-dependent serotonin transporter (Homo sapiens, UniProt P31645), sequence (P31645 whole entry): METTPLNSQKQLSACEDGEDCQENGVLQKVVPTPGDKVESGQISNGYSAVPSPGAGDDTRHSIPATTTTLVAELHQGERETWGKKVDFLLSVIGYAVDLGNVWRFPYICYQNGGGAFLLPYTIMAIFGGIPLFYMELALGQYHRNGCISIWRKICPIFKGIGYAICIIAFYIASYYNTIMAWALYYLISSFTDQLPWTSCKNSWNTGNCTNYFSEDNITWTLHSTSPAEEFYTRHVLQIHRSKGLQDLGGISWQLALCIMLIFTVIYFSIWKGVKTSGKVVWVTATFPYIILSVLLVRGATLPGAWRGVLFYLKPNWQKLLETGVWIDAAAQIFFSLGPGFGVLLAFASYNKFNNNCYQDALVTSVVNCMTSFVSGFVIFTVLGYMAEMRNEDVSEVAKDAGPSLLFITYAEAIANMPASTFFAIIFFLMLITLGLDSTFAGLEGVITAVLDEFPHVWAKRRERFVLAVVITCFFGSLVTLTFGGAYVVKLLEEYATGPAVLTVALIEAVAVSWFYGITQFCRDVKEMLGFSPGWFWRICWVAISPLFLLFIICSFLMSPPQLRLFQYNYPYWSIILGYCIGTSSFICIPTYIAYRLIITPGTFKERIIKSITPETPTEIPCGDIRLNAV

[7] = system: Liver microsome; test: Intrinsic clearance in human liver microsomes at 2.5 uM; assay type: ADME
[8] = biological target: Sodium-dependent serotonin transporter (Rattus norvegicus, UniProt P31652); test: Displacement of [3H]citalopram from SERT in Sprague-Dawley rat whole brain membranes after 1 hr by liquid scintillation spectrometry; assay type: tissue-based, Membrane
Sodium-dependent serotonin transporter (Rattus norvegicus, UniProt P31652), sequence (P31652 whole entry): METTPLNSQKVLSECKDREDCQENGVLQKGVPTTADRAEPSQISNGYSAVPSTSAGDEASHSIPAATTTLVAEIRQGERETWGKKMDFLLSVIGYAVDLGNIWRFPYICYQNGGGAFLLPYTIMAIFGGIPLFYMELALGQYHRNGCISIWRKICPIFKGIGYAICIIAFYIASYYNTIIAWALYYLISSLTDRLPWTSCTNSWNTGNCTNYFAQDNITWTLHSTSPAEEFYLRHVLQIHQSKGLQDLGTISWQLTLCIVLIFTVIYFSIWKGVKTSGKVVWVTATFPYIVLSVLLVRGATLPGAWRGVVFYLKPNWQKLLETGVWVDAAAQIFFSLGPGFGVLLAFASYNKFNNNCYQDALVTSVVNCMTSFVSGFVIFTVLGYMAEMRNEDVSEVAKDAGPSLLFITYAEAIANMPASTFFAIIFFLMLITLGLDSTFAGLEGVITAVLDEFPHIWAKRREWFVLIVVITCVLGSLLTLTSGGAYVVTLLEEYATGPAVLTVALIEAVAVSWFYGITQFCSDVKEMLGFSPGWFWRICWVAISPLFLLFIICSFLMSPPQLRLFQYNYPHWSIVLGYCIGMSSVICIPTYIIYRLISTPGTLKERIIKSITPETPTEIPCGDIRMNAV

[9] = biological target: 5-hydroxytryptamine receptor 1A (Homo sapiens) (UniProt P08908); test: Displacement of [3H]-8-OH-DPAT from human 5HT1A receptor at 1 uM
5-hydroxytryptamine receptor 1A (Homo sapiens), sequence (P08908 whole entry, looked up): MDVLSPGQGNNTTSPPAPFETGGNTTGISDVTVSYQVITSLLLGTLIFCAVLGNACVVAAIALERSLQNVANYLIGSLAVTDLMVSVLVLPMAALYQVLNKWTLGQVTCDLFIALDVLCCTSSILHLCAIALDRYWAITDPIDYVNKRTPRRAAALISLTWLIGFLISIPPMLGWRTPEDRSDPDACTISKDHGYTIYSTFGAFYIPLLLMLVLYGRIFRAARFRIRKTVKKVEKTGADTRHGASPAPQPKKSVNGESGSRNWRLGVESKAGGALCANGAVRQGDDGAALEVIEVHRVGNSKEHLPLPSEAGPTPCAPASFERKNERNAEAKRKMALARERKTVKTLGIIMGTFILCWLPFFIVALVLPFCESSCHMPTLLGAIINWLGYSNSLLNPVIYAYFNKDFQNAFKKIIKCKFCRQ

[10] = system: Mus musculus; test: Induction of motor depression in C57BL/6J mouse assessed as total duration of immobility was measured over a period of 6 mins at 25 to 100 mg/kg, ip by tail suspension test; assay type: organism-based; conditions: in vivo, 0.1 h
[11] = system: Mus musculus; test: Inhibition of mCPP-induced hypomotility in NMRI mouse assessed as reductiion in vertical hypoactivity at 40 to 80 mg/kg, ip up to 60 mins; assay type: functional, organism-based
[12] = biological target: 5-hydroxytryptamine receptor 2B (Homo sapiens) (UniProt P41595); test: Displacement of [3H]-LSD from human 5HT2B receptor at 1 uM
5-hydroxytryptamine receptor 2B (Homo sapiens), sequence (P41595 whole entry): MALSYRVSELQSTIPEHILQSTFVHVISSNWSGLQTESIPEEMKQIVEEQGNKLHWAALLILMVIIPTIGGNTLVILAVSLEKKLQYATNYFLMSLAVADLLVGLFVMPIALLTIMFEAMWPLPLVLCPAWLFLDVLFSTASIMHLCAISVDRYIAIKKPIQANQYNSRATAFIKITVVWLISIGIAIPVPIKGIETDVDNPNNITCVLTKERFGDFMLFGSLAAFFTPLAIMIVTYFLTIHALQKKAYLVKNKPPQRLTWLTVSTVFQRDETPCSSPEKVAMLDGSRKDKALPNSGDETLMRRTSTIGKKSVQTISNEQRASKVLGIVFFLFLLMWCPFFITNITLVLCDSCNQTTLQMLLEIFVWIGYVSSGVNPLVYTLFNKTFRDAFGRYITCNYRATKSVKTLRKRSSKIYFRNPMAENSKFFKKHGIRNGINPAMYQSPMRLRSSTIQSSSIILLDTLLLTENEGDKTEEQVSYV

[13] = system: Mus musculus; test: Effect on spontaneous rearing behavior in NMRI mouse at 5 to 80 mg/kg, ip; assay type: ADME, organism-based; conditions: in vivo
[14] = biological target: T1, 5-hydroxytryptamine receptor 2A; test: Antagonist activity at human 5-HT2A receptor expressed in CHO-K1 cells assessed as inhibition of 5HT-induced Ca2+ release at 10 uM by fluorometry assay; assay type: functional, cell-based
[15] = system: Mus musculus; test: Inhibition of hypomotility in NMRI mouse assessed as reduction in rearing at 20 mg/kg, ip in presence of 0.1 to 1 mg/kg, sc selective 5-HT2C antagonist SB-242084; assay type: functional, organism-based
[16] = biological target: T4, 5-hydroxytryptamine receptor 2C (Homo sapiens) (UniProt P28335); test: Antagonist activity at human 5-HT2C receptor expressed in CHO-K1 cells assessed as inhibition of 5HT-induced Ca2+ release at 10 uM by fluorometry assay; assay type: functional, cell-based
T4 sequence (whole entry): T2 sequence (P28335 whole entry)

[17] = Efflux ratio of the compound from apical to basolateral side to basolateral to apical side in human vinblastine-treated Caco2 cells; assay type: ADME, cell-based; conditions: caco-2
[18] = biological target: Sodium-dependent serotonin transporter (Rattus norvegicus) (UniProt P31652); test: Displacement of [3H]citalopram from SERT in Sprague-Dawley rat whole brain membranes at 1 uM after 1 hr by liquid scintillation spectrometry; assay type: tissue-based; conditions: Membrane
Sodium-dependent serotonin transporter (Rattus norvegicus), sequence (P31652 whole entry): as the sequence (P31652 whole entry) above

[19] = system: Mus musculus; test: Inhibition of mCPP-induced hypomotility in NMRI mouse assessed as reductiion in vertical hypoactivity at 20 to 40 mg/kg, ip up to 60 mins; assay type: functional, organism-based
[20] = system: Mus musculus; test: Induction of motor depression in C57BL/6J mouse assessed as total duration of immobility was measured over a period of 6 mins at 20 to 80 mg/kg, ip by tail suspension test; assay type: organism-based; conditions: in vivo, 0.1 h
[21] = system: Mus musculus; test: Potentiation of mCPP-induced hypomotility in NMRI mouse at 20 to 40 mg/kg, ip up to 60 mins; assay type: ADME, organism-based; conditions: in vivo, 1 h
[22] = Apparent permeability of the compound from apical to basolateral side in human vinblastine-treated Caco2 cells; assay type: ADME, cell-based; conditions: caco-2
[23] = system: Mus musculus; test: Inhibition of mCPP-induced hypomotility in ip dosed NMRI mouse assessed as rearing count up to 60 mins; assay type: functional; conditions: 1 h

Row | Compound | CLH [1] [mL/min/g] | Ki [3] [µM] | Ki [5] [µM] | CLH [7] [mL/min/g] | Ki [8] [µM] | further results
1 | CN(C)CCN(Cc1ccccc1)S(=O)(=O)c1ccc(I)cc1 | 14.19 | 0.003 | 0.0116 | 1.36 | 0.0204 | Ki [2]: 0.0018 µM; Ki [4]: 0.008 µM; Ki [6]: 0.0304 µM
2 | CN(C)CCN(Cc1ccccc1)S(=O)(=O)c1ccc(NC(=O)N2CCN(c3cccc(Cl)c3)CC2)cc1 |  |  | 0.0956 |  | 0.0368 | 
3 | CN(C)CCN(Cc1ccccc1)S(=O)(=O)c1ccc(N2CCN(c3cccc(Cl)c3)CC2)cc1 | 1.57 | 0.0099 | 0.0081 | 1.43 | 0.0297 | inhibition [9]: -7%; Activity [10]: Toxic; Activity [11]: inactive; inhibition [12]: 82%; Activity [13]: Toxic; inhibition [14]: Active; Activity [15]: inactive; inhibition [16]: Active
4 | Cc1ccc(NC(=O)Nc2ccc(OC(CCN(C)C)c3ccccc3)cc2)cc1Cl (stereo unspecified) |  |  | 0.003 |  |  | 
5 | Clc1cccc(N2CCNCC2)c1 [CHLOROPHENYLPIPERAZINE] |  |  |  |  |  | Ki [6]: 0.271 µM
6 | CN(C)CCC(Oc1ccc(NC(=O)Nc2ccc3c(ccn3C)c2)cc1)c1ccccc1 (stereo unspecified) | 3.25 | 0.239 |  | 2.66 |  | Ratio [17]: 5.3
7 | Cc1cc2c(cc1Cl)N(C(=O)Nc1ccc(S(=O)(=O)N(CCN(C)C)Cc3ccccc3)cc1)CC2 |  |  | 0.0435 |  |  | inhibition [18]: 11%
8 | CN(C)CCN(Cc1ccccc1)S(=O)(=O)c1ccc(NC(=O)Nc2ccc3c(ccn3C)c2)cc1 | 1.07 | 0.0584 | 0.0145 | 3.94 | 0.0262 | Activity [19]: inactive; Activity [20]: Toxic; inhibition [9]: -4%; Activity [21]: Toxic; Papp A→B [22]: 8.6 ×10⁻⁶ cm/s; inhibition [12]: 86%; Ratio [17]: 2.2; inhibition [14]: Active; inhibition [16]: Active
9 | CN(C)CCN(Cc1ccccc1)S(=O)(=O)c1ccc(C(=O)N2CCN(c3cccc(Cl)c3)CC2)cc1 |  |  | 0.477 |  | 0.11 | 
10 | Cc1ccc(NC(=O)Nc2ccc(S(=O)(=O)N(CCN(C)C)Cc3ccccc3)cc2)cc1Cl |  |  | 0.0045 |  | 0.209 | 
11 | COc1ccc(NC(=O)Nc2ccc(OC(CCN(C)C)c3ccccc3)cc2)cc1Cl (stereo unspecified) | 1.25 | 0.233 |  | 0.68 |  | inhibition [9]: -4%; ED50 [23]: 13.5 mg/kg; inhibition [12]: 87%; Ratio [17]: 2.2
12 | Cc1cc2c(cc1Cl)N(C(=O)Nc1ccc(OC(CCN(C)C)c3ccccc3)cc1)CC2 (stereo unspecified) | 0.9 | 0.138 | 0.0006 | 0.06 | 0.0655 | ED50 [23]: 17.9 mg/kg
13 | COc1ccc(NC(=O)Nc2ccc(S(=O)(=O)N(CCN(C)C)Cc3ccccc3)cc2)cc1Cl |  |  | 0.0163 |  | 0.093 | 
14 | CN(C)CCN(Cc1ccccc1)S(=O)(=O)c1cccc(N2CCN(c3cccc(Cl)c3)CC2)c1 |  |  | 0.0061 |  | 0.509 | 
15 | CCn1ccc2cc(NC(=O)Nc3ccc(S(=O)(=O)N(CCN(C)C)Cc4ccccc4)cc3)ccc21 |  |  | 0.0265 |  | 0.0656 | 
16 | Cc1cc2c(cc1Cl)N(C(=O)Nc1ccc(Oc3cccnc3C)nc1)CC2 [SB-242084] |  | 0.274 | 0.00016 |  | 1.77 | 
